In paper PMC11378702 (RSC Advances, 2024):
Like-named read-outs stand apart in the source and are kept apart here.

Experiments:
H1975 = experiment: MTT anti-proliferative assay, H1975 cells; format: cell-based; settings: Homo sapiens, NCI-H1975, 48 h, read-out: IC50 (μM) H1975
A549 = experiment: cells; format: cell-based; settings: Homo sapiens, A549, 48 h, read-out: IC50 (μM) A549
EGFR^T790M = EGFR^T790M (Homo sapiens, UniProt P00533, T790M); experiment: biochemical; format: biochemical
EGFR^WT = EGFR^WT (Homo sapiens, UniProt P00533); experiment: biochemical
A431 = experiment: MTT anti-proliferative assay, A431 cells; format: cell-based, human; settings: read-out: IC50 (μM) A431

EGFR^WT, sequence (P00533 25-1210): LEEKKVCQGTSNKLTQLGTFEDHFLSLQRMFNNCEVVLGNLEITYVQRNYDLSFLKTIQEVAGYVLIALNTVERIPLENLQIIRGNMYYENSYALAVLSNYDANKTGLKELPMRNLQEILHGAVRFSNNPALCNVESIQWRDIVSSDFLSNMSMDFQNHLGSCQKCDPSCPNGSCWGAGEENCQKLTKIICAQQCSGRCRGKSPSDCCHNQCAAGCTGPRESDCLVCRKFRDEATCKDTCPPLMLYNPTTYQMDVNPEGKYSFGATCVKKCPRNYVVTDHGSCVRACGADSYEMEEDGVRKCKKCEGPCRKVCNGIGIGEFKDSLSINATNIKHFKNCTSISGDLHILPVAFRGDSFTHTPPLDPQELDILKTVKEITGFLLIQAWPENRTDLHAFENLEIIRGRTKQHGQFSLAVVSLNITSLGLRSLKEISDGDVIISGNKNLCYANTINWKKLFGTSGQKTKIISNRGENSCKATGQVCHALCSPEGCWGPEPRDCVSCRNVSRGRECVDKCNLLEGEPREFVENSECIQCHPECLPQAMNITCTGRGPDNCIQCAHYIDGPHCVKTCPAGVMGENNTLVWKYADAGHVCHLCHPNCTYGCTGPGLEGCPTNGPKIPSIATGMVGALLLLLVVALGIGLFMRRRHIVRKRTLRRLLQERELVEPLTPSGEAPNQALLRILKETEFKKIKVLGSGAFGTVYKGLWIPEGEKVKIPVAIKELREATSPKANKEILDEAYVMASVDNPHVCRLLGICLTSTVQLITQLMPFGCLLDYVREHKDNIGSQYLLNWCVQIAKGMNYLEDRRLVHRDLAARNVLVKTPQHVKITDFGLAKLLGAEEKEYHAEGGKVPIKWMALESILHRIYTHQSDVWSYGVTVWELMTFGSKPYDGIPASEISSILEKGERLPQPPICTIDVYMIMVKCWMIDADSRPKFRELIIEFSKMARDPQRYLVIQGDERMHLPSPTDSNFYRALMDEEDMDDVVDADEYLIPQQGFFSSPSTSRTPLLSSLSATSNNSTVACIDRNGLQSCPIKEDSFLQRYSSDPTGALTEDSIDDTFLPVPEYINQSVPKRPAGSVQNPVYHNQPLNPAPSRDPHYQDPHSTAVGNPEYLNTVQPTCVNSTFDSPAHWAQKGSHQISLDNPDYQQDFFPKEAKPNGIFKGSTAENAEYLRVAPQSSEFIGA
EGFR^T790M, sequence (P00533 25-1210 T790M): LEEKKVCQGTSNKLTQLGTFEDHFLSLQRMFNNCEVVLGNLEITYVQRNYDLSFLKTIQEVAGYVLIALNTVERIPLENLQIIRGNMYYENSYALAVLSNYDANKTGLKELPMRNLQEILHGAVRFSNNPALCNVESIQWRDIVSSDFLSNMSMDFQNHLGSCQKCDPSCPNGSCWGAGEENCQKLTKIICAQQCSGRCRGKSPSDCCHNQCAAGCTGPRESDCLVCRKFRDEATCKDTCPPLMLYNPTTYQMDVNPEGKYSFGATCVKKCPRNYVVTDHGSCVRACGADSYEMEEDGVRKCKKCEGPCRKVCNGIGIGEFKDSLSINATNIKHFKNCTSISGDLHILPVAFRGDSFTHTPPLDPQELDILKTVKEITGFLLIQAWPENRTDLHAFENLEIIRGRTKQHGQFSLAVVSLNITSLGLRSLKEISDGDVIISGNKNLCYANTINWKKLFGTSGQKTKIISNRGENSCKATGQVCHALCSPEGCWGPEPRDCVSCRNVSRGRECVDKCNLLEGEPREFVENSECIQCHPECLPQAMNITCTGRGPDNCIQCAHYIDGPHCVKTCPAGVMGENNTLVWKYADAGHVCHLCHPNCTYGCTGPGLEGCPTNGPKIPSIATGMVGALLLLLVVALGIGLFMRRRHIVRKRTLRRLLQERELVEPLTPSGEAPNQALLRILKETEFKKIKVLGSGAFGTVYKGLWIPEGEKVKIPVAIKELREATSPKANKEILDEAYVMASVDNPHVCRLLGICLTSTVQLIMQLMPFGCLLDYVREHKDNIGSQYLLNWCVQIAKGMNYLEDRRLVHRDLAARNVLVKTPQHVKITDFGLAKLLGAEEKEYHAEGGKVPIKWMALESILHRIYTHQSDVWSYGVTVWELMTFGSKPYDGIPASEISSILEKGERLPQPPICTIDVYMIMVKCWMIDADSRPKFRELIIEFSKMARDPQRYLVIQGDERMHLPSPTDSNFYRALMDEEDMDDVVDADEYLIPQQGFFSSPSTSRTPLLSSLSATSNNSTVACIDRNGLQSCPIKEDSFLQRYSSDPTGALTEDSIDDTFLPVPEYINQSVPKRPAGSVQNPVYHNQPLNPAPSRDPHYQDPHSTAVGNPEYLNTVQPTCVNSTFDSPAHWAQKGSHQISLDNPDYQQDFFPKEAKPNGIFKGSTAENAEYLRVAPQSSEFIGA

Compound | IC50 (H1975) | IC50 (A549) | IC50 (EGFR^T790M) | IC50 (EGFR^WT) | IC50 (A431; MTT, two-day incubation, mean ± SD, n = 3) | fold more potent than gefitinib (EGFR^T790M IC50) (EGFR^T790M; relative to gefitinib) | IC50 (A431; Homo sapiens, A-431, 48 h)
CC(=O)C(=NNc1ccc(S(=O)(=O)Nc2ncccn2)cc1)C(=O)c1ccccc1 [Compound 8, 4-[2-(1-Benzoyl-2-oxopropylidene)hydrazino]-N-pyrimidin-2-ylbenzenesulfonamide] | 2.31 ± 0.23 µM | 4.78 ± 0.12 µM | 0.0096 ± 0.0032 µM | 0.0232 ± 0.0001 µM | 4.12 ± 0.54 µM | 38 fold | 
N#CC(=NNc1ccc(S(=O)(=O)Nc2ncccn2)cc1)C(N)=C(C#N)C#N [Compound 11, 2-Amino-3,3-dicyano-N-(4-(N-(pyrimidin-2-yl)sulfamoyl)phenyl)acrylohydrazonoyl cyanide] | 14.1 ± 1.23 µM | 13.6 ± 1.32 µM | 0.133 ± 0.0162 µM | 0.0477 ± 0.0114 µM |  |  | 15.1 ± 0.58 µM
CSC1=NC(=N)C(=NNc2ccc(S(=O)(=O)Nc3ncccn3)cc2)C(N)=C1C#N [Compound 13, 4-{-2-[4-Amino-5-cyano-2-imino-6-(methylthio)pyridin-3(2H)-ylidene]hydrazino}-N-pyrimidin-2-ylbenzenesulfonamide] | 17.1 ± 1.62 µM | 15.5 ± 1.34 µM | 0.215 ± 0.0152 µM | 0.0417 ± 0.0082 µM |  |  | 
CSc1nc(NC(=O)C(=NNc2ccc(S(=O)(=O)Nc3ncccn3)cc2)C(C)=O)cc(N)c1C#N [Compound 14, N-(4-Amino-5-cyano-6-(methylthio)pyridin-2-yl)-3-oxo-2-{[4-(pyrimidin-2-ylsulfamoyl)phenyl]hydrazono}butanamide] | 4.59 ± 0.43 µM | 7.56 ± 0.27 µM | 0.0243 ± 0.0034 µM | 0.0153 ± 0.0031 µM |  |  | 
C#Cc1cccc(Nc2ncnc3cc(OCCOC)c(OCCOC)cc23)c1 [Erlotinib, reference compound] | 12.9 ± 1.23 µM | 17.5 ± 2.34 µM |  |  |  |  | 
C=CC(=O)Nc1cc(Nc2nccc(-c3cn(C)c4ccccc34)n2)c(OC)cc1N(C)CCN(C)C [Osimertinib, reference compound] | 0.93 ± 0.09 µM |  |  |  |  |  | 

The next lines start with results.

IC50 (H1975) | IC50 (A549) | IC50 (EGFR^T790M) | IC50 (EGFR^WT) | IC50 (A431; MTT, two-day incubation, mean ± SD, n = 3) | fold more potent than gefitinib (EGFR^T790M IC50) (EGFR^T790M; relative to gefitinib) | Compound | IC50 (A431; Homo sapiens, A-431, 48 h)
20.1 ± 2.21 µM | 19.2 ± 3.09 µM | 0.0936 ± 0.0085 µM | 0.0492 ± 0.0067 µM |  |  | CCC(=O)C(=NNc1ccc(S(=O)(=O)Nc2ncccn2)cc1)C(C)=O [Compound 5, 4-(2-(2,4-Dioxohexan-3-ylidene)hydrazineyl)-N-(pyrimidin-2-yl)benzenesulfonamide] | 
15.7 ± 0.21 µM | 16.6 ± 0.92 µM | 0.0668 ± 0.0104 µM | 0.0526 ± 0.0093 µM |  |  | CC(=O)C(=NNc1ccc(S(=O)(=O)Nc2ncccn2)cc1)C(C)=O [Compound 6, 4-(2-(2,4-Dioxopentan-3-ylidene)hydrazineyl)-N-(pyrimidin-2-yl)benzenesulfonamide] | 
13.1 ± 0.67 µM | 15 ± 1.27 µM | 0.0171 ± 0.0001 µM | 0.0435 ± 0.0002 µM |  |  | CCOC(=O)/C(C#N)=N\Nc1ccc(S(=O)(=O)Nc2ncccn2)cc1 [Compound 9, Ethyl (Z)-2-cyano-2-(2-(4-(N-(pyrimidin-2-yl)sulfamoyl)phenyl)hydrazineylidene)acetate] | 
15.8 ± 2.48 µM | 19.7 ± 0.34 µM | 0.0608 ± 0.0062 µM | 0.0315 ± 0.0058 µM |  |  | N#CC(=NNc1ccc(S(=O)(=O)Nc2ncccn2)cc1)C(N)=S [Compound 10, 2-Cyano-(2-(4-(N-(pyrimidin-2-yl)sulfamoyl)phenyl)hydrazono)ethanethioamide] | 
6.12 ± 0.24 µM | 5.15 ± 0.3 µM | 0.0354 ± 0.0086 µM | 0.0145 ± 0.0075 µM |  |  | CCOC(=O)C(=NNc1ccc(S(=O)(=O)Nc2ncccn2)cc1)C(=O)OCC [Compound 12, Diethyl 2-(2-(4-(N-(pyrimidin-2-yl)sulfamoyl)phenyl)hydrazineylidene)malonate] | 
